# Assay results from US9492428B2, “Compounds, compositions, pharmaceutical compositions, and methods of use” (University of Louisville Research Foundation, Inc., priority 2011, dated 2016).
# What was measured:
# Type in all cases: cell-based, human
# [1] = system: DU145 cells; assay: Immunofluorescence (confocal) microscopy, α-tubulin and DAPI; conditions: 10 μM
# Procedure: FIG. 14. Fluorescent microscopy of DU145 prostate cancer cells. DU145 cells were plated in culture dishes designed for confocal microscopy and allowed to adhere for 18 hours at 37° C. They were then for incubated for a further 24 and 48 h with 10 μM compound I-1 or 48 h with vehicle (DMSO). After that, cells were washed with cold PBS, fixed with 4% paraformaldehyde, and permeabilized with 0.1% Triton 100X. Cells were stained with 4′6-diamidino-2-phenylindole (DAPI), which binds to DNA, and with anti-α-tubulin antibody labeled with Alexa Fluor 488 to show the location of microtubules. Scale bars indicate a length of […], arrows indicate cells with evidence of aberrant mitosis, and asterisks indicate cells with apoptotic morphology.
# Immunofluorescence microscopy. Cells (2.5×10^4) in fresh complete culture medium were plated on 18 mm diameter glass cover slips for 18 h. The medium was replaced with complete medium containing 10 μM compound I-1 or an equivalent volume of vehicle (DMSO) and incubated for 24 or 48 h. After incubation, cells were washed 3 times with ice-cold PBS, fixed in 4% paraformaldehyde in PBS for 30 min at room temperature, and washed three times with PBS. Cells were permeabilized for 1 min in PBS containing 0.1% Triton X-100, and washed three times with PBS. […]
# [2] = system: DU145 cells; assay: Clonogenic assay in DU145
# Procedure: FIG. 7. Clonogenic assays in prostate cancer cells treated with compound I-1. Prostate cancer cells, DU145 (A) or PC3 (B), were plated at very low density in 6-well plates and incubated 18 h at 37° C. Cells were treated by addition of various concentrations of compound I-1 or with an equivalent volume of vehicle (DMSO), or were left untreated. After 10 days of treatment, cells were washed with cold PBS, fixed with paraformaldehyde, and stained with crystal violet solution.
# Clonogenic Assay. Cells in fresh complete medium were plated at very low density (3×10^2 per well) into six-well plates for 18 h. After complete adhesion, cells were treated with compound I-1 by adding directly to the medium to give the concentration indicated in the figures. Cells were allowed to grow until visible colonies formed (10 days). Cell colonies were fixed with 4% paraformaldehyde in PBS (phosphate-buffered saline), stained with 0.25% crystal violet in 25% methanol, washed and air-dried.
# [3] = system: DU145 cells; assay: Immunoblotting of apoptotic markers (cleaved caspase-3, PARP-1) in DU145
# Procedure: FIG. 13. Assays to detect apoptosis in DU145 cells. Prostate cancer cells were left untreated (−) or treated with 10 μM compound I-1 or with vehicle (DMSO) for the time indicated in the figure. (A) After treatment, cells were harvest by trypsinization, washed with PBS, and then incubated with FITC-conjugated Annexin V and propidium iodide. Flow cytometric analysis was performed. The histogram for each sample was split into four quadrants to indicate: viable cells (lower left quadrant), apoptotic cells (lower right quadrant), necrotic cells (upper left quadrant), and necrotic/late apoptotic cells (upper right quadrant). (B) After treatment, cells were lysed and total lysates were analyzed for cellular apoptotic markers by immunoblotting using anti-[…] or antibodies specific to the activated form of Caspase-3 (cleaved Caspase-3). Anti-GAPDH-1 antibody was used as loading control. (C) Some cells were harvested by trypsinization, washed with PBS, and total DNA was extracted then analyzed on a 1.8% agarose gel. M indicates DNA size marker (base pairs).
# Cell Culture and Treatment. All cells were obtained from ATCC and were grown in a humidified incubator at 37° C. with 5% CO2. DU145 (hormone-refractory prostate cancer) cells were grown in DMEM and PC3 (hormone-refractory prostate cancer) were grown in F-12K medium supplemented with 10% fetal bovine serum (FBS; Life Technologies), 62.5 μg/mL penicillin and 100 μg/mL streptomycin (Hyclone Laboratories, Logan, Utah). Cells (1×10^6) in fresh complete culture medium were plated on 10 cm diameter tissue dishes for 18 h. Cells for biochemical analyses cells were lysed in lysis buffer (150 mM NaCl, 2 mM EDTA, 50 mM Tris-HCl, 0.25% deoxycholic acid, 1% octylphenoxypolyethoxyethanol (IGEPAL CA-630), pH 7.5) containing protease and phosphatase inhibitor cocktails (Calbiochem, Billerica, Mass.) for 10 min at 4° C. and then cleared by centrifugation at 16,000 g for 10 min at 4° C. All protein concentrations were determined using the bicinchoninic acid (BCA) protein assay (Pierce, Rockford, Ill.).
# Immunoblotting. Samples were resolved by 4-20% precast linear gradient SDS-Tris polyacrylamide gel electrophoresis (Bio-rad Bio-Rad Laboratories, Hercules, Calif.) and then electrotransferred onto polyvinylidine fluoride membranes (Millipore, Bedford, Mass.) in Tris-glycine buffer containing 20% methanol. […] Antibody-reactive proteins were detected using a chemiluminescence substrate (SuperSignal; Pierce, Rockford, Ill.) according to the manufacturer's instructions. […]
# Next, to further confirm that compound I-1 induces apoptosis in prostate cancer cells, we evaluated key apoptotic molecular markers. […]
compound,measurement,setting,value
C[C@@H]1CC[C@H]2C3C(O[C@]4([C@]5(O)CC6(C)C(=O)OC5C[C@@]6(C)O)CC[C@@]31O4)[C@H]1O[C@]13CC=CC(=O)[C@]23C (some centres unmarked) [I-1],cells with evidence of aberrant mitosis,[1]; 24 h,increased number
same,cells with evidence of abnormal mitosis or apoptosis,[1]; 48 h,almost all of the cells
same,effect on colony formation,"[2]; 2.5 μM, 10 days",Inhibitory effects
same,concentration that blocked the capacity of single cancer cells to generate colonies,[2]; 10 days of treatment,≥ 5 µM
same,activated caspase-3,"[3]; 10 μM, 48 h and 72 h",detected
same,cleavage of PARP-1 protein (additional band at 89 kDa),"[3]; 10 μM, 48 h and 72 h",detected
same,Caspase-3 activation,[3]; time periods shorter than 48 h,could not be detected
same,PARP-1 cleavage,[3]; time periods shorter than 48 h,could not be detected
